Results from patent US4089946A, “Claudogenic-interceptive nonapeptides” (American Home Products Corporation, priority 1976, dated 1978).

Columns and labels:
[1] = test system: Mature, female, Sprague-Dawley rats (pregnancy: uterine implantation sites and fetuses); assay: Anti-gravidity (claudogenic/interceptive, post-coital) evaluation in pregnant rats; format: in vivo, rat
Description: The procedure followed in evaluating the anti-gravidity properties of the nonapeptides of this invention was as follows: Mature, female, Sprague-Dawley rats (350 + 30 grams body weight) maintained on a 14:10 light:dark schedule were caged with fertile male rats on the evening of proestrus. The presence of vaginal sperm the next morning was considered day 1 of pregnancy. The nonapeptide ethylamine produced in the following examples, representative of the entire group of compounds of this invention, was administered subcutaneously in a corn oil vehicle on days 1-7, or 7-12 of pregnancy at a rate of as low as 1 μg/rat/day. One-half the daily dose was administered at 9 A.M. and at 3 P.M. each day. The recipients of day 1-7 treatment were autopsied on day 14. The recipients of day 7-12 treatment were autopsied on day 18 of pregnancy. The effectiveness of the ethylamide and its effective dose was established by the absence of uterine implantation sites and fetuses. The presence of at least one normal fetus was considered to be the criterion for pregnancy. […]

[2] = test system: Proestrous female Sprague-Dawley rats (ovulation, ova in fallopian tubes); assay: Ovulation induction in Nembutal-blocked proestrous rats; format: in vivo, rat
Protocol: The ovulation-induction properties of the nonapeptides of this invention was determined with the preferred compound, [D-Trp^6,(N-methyl)Leu^7,des-Gly-NH2^10,Pro-ethylamide]LRH as follows: Proestrous female Sprague-Dawley rats were injected intraperitoneally with a hypnotic dose of Nembutal® (50 mg/kg) at 1:30 PM. Between 1:40 and 1:50 PM the rats received the test material via the jugular vein. The following morning the animals were sacraficed and the fallopian tubes examined for ova under a dissecting microscope. […] Thus, in its ovulation induction, the preferred compound of this invention is about ten times as active as its closest structural analogues.

CCNC(=O)[C@@H]1CCCN1C(=O)[C@H](CCCNC(=N)N)NC(=O)[C@H](CC(C)C)N(C)C(=O)[C@@H](Cc1c[nH]c2ccccc12)NC(=O)[C@H](Cc1ccc(O)cc1)NC(=O)[C@H](CO)NC(=O)[C@H](Cc1c[nH]c2ccccc12)NC(=O)[C@H](Cc1c[nH]cn1)NC(=O)[C@@H]1CCC(=O)N1 [L-pyroglutamyl-L-histidyl-L-tryptophyl-L-seryl-L-tyrosyl-D-tryptophyl-N-methyl-L-leucyl-L-arginyl-L-prolinethylamide]
effectiveness of treatment (absence of uterine implantation sites and fetuses) ([1]; 1 microgram per rat per day subcutaneously in corn oil, day 1-7 of pregnancy, five rat sample, autopsy day 14): 100% | effectiveness of treatment (absence of uterine implantation sites and fetuses) ([1]; 10 micrograms per rat per day subcutaneously in corn oil, day 7-12 of pregnancy, autopsy day 18): 100% | rats showing ovulation inducing activity ([2]; 0.1 mg per rat via the jugular vein): 100% | ovulation induction activity relative to closest structural analogues ([2]; rat, in vivo): about ten

LRH: LRH itself, the parent hormone used as comparison for ovulation induction (QHWSYGLRPG; Gonadoliberin-1; UniProt P01148 24-33, looked up) [reference compound]
dose required to obtain 100 percent ovulation ([2]; via the jugular vein): about 3 mg per rat
